Data published in paper PMC9960633, “Novel Silver Complexes Based on Phosphanes and Ester Derivatives of Bis(pyrazol-1-yl)acetate Ligands Targeting TrxR: New Promising Chemotherapeutic Tools Relevant to SCLC Management” (International Journal of Molecular Sciences, 2023).

What was measured:
[1] = test system: U1285; assay: MTT cytotoxicity, 2D culture, SCLC; format: cell-based, human; conditions: U1285, 72 h, MTT test
Protocol: (§1) The Ag(I) complexes 3–5 and the corresponding uncoordinated ligands 1 and 2 were evaluated for their cytotoxic activity against various human cancer cell lines representative of different solid tumors. In particular, the in-house cancer cell panel contained examples of human colon (HCT-15), pancreatic (PSN-1), cervical (A431), breast (MDA-MB-231) and ovarian (2008) carcinoma as well as of SCLC (U1285). For comparison purposes, the cytotoxicity of the reference metal-based chemotherapeutic drug cisplatin was assessed under the same experimental conditions.
(§2) Ag(I) complexes and the corresponding uncoordinated ligands were dissolved in DMSO just before the experiment, and a calculated amount of drug solution was added to the cell growth medium to a final solvent concentration of 0.5%, which had no detectable effects on cell viability. Cisplatin was dissolved in 0.9% sodium chloride solution. MTT (3-(4,5-dimethylthiazol-2-yl)-2,5-diphenyltetrazolium bromide) and cisplatin were obtained from Sigma Chemical Co, St. Louis, MO, USA.
(§3) Human SCLC (U1285), breast (MDA-MB-231), colon (HCT-15), and pancreatic (PSN-1) carcinoma cell lines were obtained by American Type Culture Collection (ATCC, Rockville, MD, USA). A431 are human cervical carcinoma cells kindly provided by Professor F. Zunino (Division of Experimental Oncology B, Istituto Nazionale dei Tumori, Milan, Italy). The 2008 cells and the cisplatin-resistant variant, C13* cells, are human ovarian adenocarcinoma cell lines that were kindly provided by Professor G. Marverti (Department of Biomedical Science of Modena University, Modena, Italy). Cell lines were maintained in the logarithmic phase at 37 °C in a 5% carbon dioxide atmosphere using the following culture media containing 10% fetal calf serum (EuroClone, Milan, Italy), antibiotics (50 units/mL penicillin and 50 μg/mL streptomycin) and 2 mM l-glutamine: (i) RPMI-1640 medium (EuroClone, Milan, Italy) for HCT-15, A431, PSN-1, U1285, 2008 and C13* cells; (ii) DMEM (EuroClone, Milan, Italy) for MDA-MB-231 cells.
(§4) The growth inhibitory effect toward tumor cells was evaluated by means of MTT assay. Briefly, 3–8 × 10^3 cells/well, dependent upon the growth characteristics of the cell line, were seeded in 96-well microplates in growth medium (100 μL). After 24 h, the medium was removed and replaced with a fresh one containing the compound to be studied at the appropriate concentration. Triplicate cultures were established for each treatment. After 72 h, each well was treated with 10 μL of a 5 mg/mL MTT saline solution, and following 5 h of incubation, 100 μL of a sodium dodecyl sulfate (SDS) solution in HCl 0.01 M was added. After overnight incubation, cell growth inhibition was detected by measuring the absorbance of each well at 570 nm using a Bio-Rad 680 microplate reader. Mean absorbance for each drug dose was expressed as a percentage of the control untreated well absorbance and plotted vs. drug concentration. IC50 values, the drug concentrations that reduce the mean absorbance at 570 nm to 50% of those in the untreated control wells, were calculated by the four-parameter logistic (4-PL) model. Evaluation was based on means from at least four independent experiments.

[2] = test system: A431; assay: MTT cytotoxicity, 2D culture, cervical carcinoma; format: cell-based, human; conditions: A431, 72 h, MTT test
Protocol: as §1, §2, §3, §4

[3] = test system: MDA-MB-231; assay: MTT cytotoxicity, 2D culture, breast carcinoma; format: cell-based, human; conditions: MDA-MB-231, 72 h, MTT test
Protocol: as §1, §2, §3, §4

[4] = test system: 2008; assay: MTT cytotoxicity, 2D culture, ovarian carcinoma; format: cell-based, human; conditions: 2008, 72 h, MTT test
Protocol: as §1, §2, §3, §4

[5] = test system: HCT-15; assay: MTT cytotoxicity, 2D culture, colon carcinoma; format: cell-based, human; conditions: HCT-15, 72 h, MTT test
Protocol: as §1, §2, §3, §4

[6] = test system: U1285 cancer cell spheroids; assay: 3D spheroid cytotoxicity, acid phosphatase (APH) assay; format: cell-based, human; conditions: 72 h
Protocol: The in vitro antitumor activity of the newly developed Ag(I) derivatives was also assayed in 3D cell culture models of SCLC cells. Even if the 2D cell cultures are the most employed assays for in vitro screening due to the low cost, simplicity and reliability, two-dimensional methods are unable to reproduce the properties of in vivo solid tumors. In contrast, 3D cell cultures are much more efficient in closely mimicking the heterogeneity and complexity of the tumor mass and therefore are more predictive for in vivo results than conventional 2D cell cultures. On these bases, we tested the activity of the Ag(I) complexes on spheroids obtained from U1285 cells, which were proven to be highly sensitive to their in vitro antitumor activity. SCLC spheroids were treated with the investigated compounds for 72 h, and cell viability was assessed by means of the acid phosphatase (APH) assay.
Spheroids from U1285 cells (3 × 10^3 cells/well) were treated for 72 h with increasing concentrations of tested compounds. The growth inhibitory effect was evaluated by means of the APH assay. IC50 values were calculated from the dose–survival curves by the four-parameter logistic model (p < 0.05). S.D. = standard deviation.
Spheroid cultures were obtained by seeding 2.5 × 10^3 U1285 cancer cells/well in a round-bottom non-treated tissue culture 96-well plate (Greiner Bio-one, Kremsmünster, Austria) in phenol red free RPMI-1640 medium (Sigma Chemical Co., St. Louis, MO, USA) containing 10% fetal calf serum and supplemented with 20% methyl cellulose stock solution.
An APH modified assay was used for determining cell viability in 3D spheroids, as previously described. […] The inhibition of the cell growth induced by the tested complexes was detected by measuring the absorbance of each well at 405 nm, using a Bio-Rad 680 microplate reader. Mean absorbance for each drug dose was expressed as a percentage of the control untreated well absorbance (T/C) and plotted vs. drug concentration. […]

[7] = test system: C13* cells; assay: MTT cytotoxicity, cisplatin-resistant ovarian adenocarcinoma; format: cell-based, human; conditions: 72 h, MTT test
Text: The antiproliferative activity of the Ag(I) complexes 3–5 was also investigated in an additional cell line selected for its resistance to cisplatin, the human ovarian adenocarcinoma C13* cells. These cells were suitably selected after a cisplatin chronic treatment and are characterized by several mechanisms accounting for their resistance to cisplatin; these include (i) a reduced intracellular drug accumulation, (ii) high cellular levels of glutathione and metallothioneins, (iii) the enhanced repair of platinum-DNA adducts, and (iv) an overexpression of the Trx system.
Cytotoxicity was assessed after 72 h of drug treatment by MTT test, and the IC50 and RF values (RF = resistance factor, defined as the ratio of the IC50 of resistant cells over the IC50 of sensitive ones) are reported in Table 1.
as §3, §4

[8] = test system: PSN-1; assay: MTT cytotoxicity, 2D culture, pancreatic carcinoma; format: cell-based; conditions: Homo sapiens, PSN1; PSN-1, 72 h, MTT test
Protocol: as §1, §2, §3
The growth inhibitory effect toward tumor cells was evaluated by means of MTT assay. Briefly, 3–8 × 10^3 cells/well, dependent upon the growth characteristics of the cell line, were seeded in 96-well microplates in growth medium (100 μL). After 24 h, the medium was removed and replaced with a fresh one containing the compound to be studied at the appropriate concentration. Triplicate cultures were established for each treatment. […] After overnight incubation, cell growth inhibition was detected by measuring the absorbance of each well at 570 nm using a Bio-Rad 680 microplate reader. Mean absorbance for each drug dose was expressed as a percentage of the control untreated well absorbance and plotted vs. drug concentration. […]

[9] = test system: HEK293 cells; assay: MTT cytotoxicity, non-cancerous cells; format: cell-based; conditions: Homo sapiens, 72 h, MTT test
Protocol: One of the main drawbacks of chemotherapeutic drugs is the possible toxic effect toward non-cancerous cells, and we measured the cytotoxicity of Ag(I) complexes against non-cancerous HEK293 cells (see Table 1). For all Ag(I) complexes, calculated IC50 values were higher than those obtained on average against tumor cells, thus indicating for this class of metal complexes a slightly preferential cytotoxicity against human cancer cells.
as §4

[10] = target: T1, TrxR (Homo sapiens, UniProt Q16881); assay: TrxR activity in treated U1285 cells; format: cell-based; conditions: 2 µM, 24 h
T1 construct: hampering TrxR activity when tested in U1285 cell cultures; endogenous in cells; host or cells: U1285 human small-cell lung carcinoma cells
T1 sequence (Q16881 151-649 limits assumed): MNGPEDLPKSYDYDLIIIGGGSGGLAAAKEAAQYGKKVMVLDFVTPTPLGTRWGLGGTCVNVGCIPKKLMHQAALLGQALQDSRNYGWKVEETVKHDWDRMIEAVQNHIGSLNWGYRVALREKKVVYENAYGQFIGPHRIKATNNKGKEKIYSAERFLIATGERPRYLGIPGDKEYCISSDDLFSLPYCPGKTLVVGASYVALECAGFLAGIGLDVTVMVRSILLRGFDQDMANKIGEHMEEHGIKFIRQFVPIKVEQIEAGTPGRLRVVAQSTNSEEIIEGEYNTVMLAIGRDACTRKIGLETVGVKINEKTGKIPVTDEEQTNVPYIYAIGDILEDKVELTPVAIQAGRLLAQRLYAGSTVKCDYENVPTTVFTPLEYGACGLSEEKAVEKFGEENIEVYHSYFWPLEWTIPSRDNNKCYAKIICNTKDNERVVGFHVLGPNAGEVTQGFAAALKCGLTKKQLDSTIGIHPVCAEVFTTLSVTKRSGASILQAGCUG
Protocol: On the other hand, Ag(I) compounds 4 and 5 were as effective or even better than auranofin in hampering TrxR activity when tested in U1285 cell cultures.
At the end of incubation time, cells were collected, washed with ice-cold PBS and centrifuged at […]. Each sample was then lysed with RIPA buffer modified as follows: 150 mM NaCl, 50 mM Tris–HCl, 1% Triton X-100, 1% SDS, 1% DOC, 1 mM NaF, 1 mM EDTA, and immediately before use, an anti-protease cocktail (Roche, Basel, Switzerland) containing PMSF was added. Samples were tested for TrxR activity as above described.
Figure 2 TrxR inhibition. (A) TrxR1 activity was assayed by measuring NADPH-dependent reduction of DTNB at 412 nm as described in the Experimental Section. (a) 50% inhibition concentration (IC50), Error bars indicate S.D. (B) U1285 cells were incubated for 24 h with the tested compounds (2 µM). Subsequently, cells were washed twice with PBS and lysed. TrxR activity was tested by measuring NADPH-dependent reduction of DTNB at 412 nm. Error bars indicate SD. * p < 0.05; ** p < 0.01.

| SMILES | IC50 [1] | IC50 [2] | IC50 [3] | IC50 [4] | IC50 [5] | IC50 [6] | IC50 [7] | IC50 ([1]; Homo sapiens) | IC50 ([2]; Homo sapiens, A-431) | IC50 ([3]; Homo sapiens) | IC50 ([4]; Homo sapiens) | IC50 [8] | IC50 ([5]; Homo sapiens) | IC50 [9] | IC50 ([7]; Homo sapiens) | decrease of TrxR enzyme activity [10] | IC50 ([6]; Homo sapiens) |
| --- | --- | --- | --- | --- | --- | --- | --- | --- | --- | --- | --- | --- | --- | --- | --- | --- | --- |
| N.N.[Cl][Pt][Cl] [cisplatin, reference compound] | 9.6 ± 1.2 µM | 2.1 ± 0.9 µM | 30.5 ± 2.6 µM | 2.2 ± 1 µM | 15.3 ± 2.6 µM | 65.4 ± 1.4 µM | 30.5 ± 2.6 µM | – | – | – | – | – | – | – | – | – | – |
| C1N2CN3CN1CP(C2)C3 [PTA, 1,3,5-triaza-7-phosphaadamantane, reference compound] | – | – | – | – | – | – | – | > 100 µM | > 100 µM | > 100 µM | > 100 µM | > 100 µM | > 100 µM | > 100 µM | > 100 µM | – | – |
| c1ccc(P(c2ccccc2)c2ccccc2)cc1 [PPh3, triphenylphosphine, reference compound] | – | – | – | – | – | – | – | > 50 µM | 47.5 ± 1.1 µM | > 50 µM | > 50 µM | > 50 µM | > 50 µM | > 100 µM | > 50 µM | – | – |
| CC(=O)OC[C@H]1O[C@@H]([S-])[C@H](OC(C)=O)[C@@H](OC(C)=O)[C@@H]1OC(C)=O.CCP(CC)CC.[Au+] [auranofin, reference compound] | – | – | – | – | – | – | – | – | – | – | – | – | – | – | – | 62% | – |
| COC(=O)C(n1nc(C)cc1C)n1nc(C)cc1C [ligand 2, [HC(pz^Me2)2COOCH3]] | – | – | – | – | – | – | – | > 50 µM | > 50 µM | > 50 µM | > 50 µM | > 50 µM | > 50 µM | > 50 µM | > 50 µM | – | > 100 µM |
| COC(=O)C(n1cccn1)n1cccn1 [ligand 1, [HC(pz)2COOCH3]] | – | – | – | – | – | – | – | > 50 µM | > 50 µM | > 50 µM | > 50 µM | > 50 µM | > 50 µM | > 50 µM | > 50 µM | – | > 100 µM |
